Laboratory results reported in ChEMBL document CHEMBL5576042, “Fungal Depsidones Stimulate AKT-Dependent Glucose Uptake in 3T3-L1 Adipocytes” (J Nat Prod, 2024).
Values belong to the molecule of their own block, whether it stands above or below them. Activity calls are given as the source filed them. The rule behind the calls is not given here.

How the values were obtained:
3T3-L1 [1] = assay: Induction of glucose uptake in mouse 3T3-L1 cells assessed as increase in glucose uptake at 2.3 uM incubated for 16 hrs in presence of 2-[3H]-deoxyglucose by microbeta analysis; type: functional
3T3-L1 [2] = assay: Induction of glucose uptake in mouse 3T3-L1 cells assessed as increase in glucose uptake at 3.1 uM incubated for 16 hrs in presence of 2-[3H]-deoxyglucose by microbeta analysis; type: functional
[3] = Effect on NONO mRNA expression in mouse 3T3-L1 cells assessed as fold change at 11 uM incubated for 6 hrs by real time qPCR analysis; type: functional
3T3-L1 [4] = assay: Induction of glucose uptake in mouse 3T3-L1 cells assessed as increase in glucose uptake at 11 uM incubated for 16 hrs in presence of 0.1 uM dorsomorphin; type: functional, cell-based
[5] = molecular target: T1, Solute carrier family 2, facilitated glucose transporter member 4 (Mus musculus) (UniProt P14142); assay: Induction of GLUT4 translocation in mouse 3T3-L1 cells membrane by Western blot analysis; type: cell membranes
T1 sequence (whole entry): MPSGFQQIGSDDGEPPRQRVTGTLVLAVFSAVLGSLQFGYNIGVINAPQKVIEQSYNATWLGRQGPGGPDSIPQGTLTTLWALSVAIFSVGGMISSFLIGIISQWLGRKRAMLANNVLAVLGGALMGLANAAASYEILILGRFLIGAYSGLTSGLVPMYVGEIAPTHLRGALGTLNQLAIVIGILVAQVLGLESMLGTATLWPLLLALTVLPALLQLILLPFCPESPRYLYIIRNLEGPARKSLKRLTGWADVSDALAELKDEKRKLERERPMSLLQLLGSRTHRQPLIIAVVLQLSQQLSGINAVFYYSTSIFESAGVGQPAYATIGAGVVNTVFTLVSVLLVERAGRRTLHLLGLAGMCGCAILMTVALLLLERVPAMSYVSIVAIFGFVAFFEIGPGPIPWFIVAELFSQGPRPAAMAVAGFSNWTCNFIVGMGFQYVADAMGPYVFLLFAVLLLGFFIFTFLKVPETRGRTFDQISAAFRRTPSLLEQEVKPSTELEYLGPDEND

[6] = Upregulation of AMPK expression in mouse 3T3-L1 cells assessed as fold change at 11 uM measured at 6 hrs by Western blot analysis; type: functional
[7] = molecular target: T1, Solute carrier family 2, facilitated glucose transporter member 4 (Mus musculus); assay: Induction of GLUT4 translocation in mouse 3T3-L1 cells Cytosol by Western blot analysis; type: subcellular
3T3-L1 [8] = assay: Induction of glucose uptake in insulin resistant-mouse 3T3-L1 cells assessed as fold increase in glucose uptake at 11 uM incubated for 16 hrs in presence of 2-[3H]-deoxyglucose and insulin; type: functional
3T3-L1 [9] = assay: Cytotoxicity against mouse 3T3-L1 cells assessed as reduction in cell viability at 45 to 68 uM incubated for 18 hrs; type: toxicity, cell-based; settings: 3t3-l1, 18 h, dose 45-68 µM
[10] = Upregulation of AMPK expression in mouse 3T3-L1 cells assessed as fold change at 11 uM measured at 1 hr by Western blot analysis; type: functional
3T3-L1 [11] = assay: Induction of glucose uptake in insulin resistant-mouse 3T3-L1 cells assessed as fold increase in glucose uptake at 11 uM incubated for 16 hrs in presence of 2-[3H]-deoxyglucose; type: functional
3T3-L1 [12] = assay: Induction of glucose uptake in mouse 3T3-L1 cells assessed as increase in glucose uptake at 11 uM incubated for 16 hrs in presence of 0.1 uM wortmannin; type: functional, cell-based
3T3-L1 [13] = assay: Induction of AKT phosphorylation at ser473 residue in insulin-resistant mouse 3T3-L1 cells in presence of insulin; type: cell-based; settings: filed as activator
3T3-L1 [14] = assay: Induction of glucose uptake in mouse 3T3-L1 cells assessed as increase in glucose uptake at 11 uM incubated for 6 hrs in presence of 0.5 uM wortmannin; type: functional
3T3-L1 [15] = assay: Induction of AKT phosphorylation at ser473 residue in mouse 3T3-L1 cells assessed as fold change at 11 uM measured at 6 hrs by Western blot analysis; type: cell-based; settings: filed as activator
3T3-L1 [16] = assay: Induction of AKT phosphorylation at ser473 residue in mouse 3T3-L1 cells assessed as fold change at 11 uM measured at 1 hr by Western blot analysis; type: cell-based; settings: filed as activator
[17] = molecular target: T1, Solute carrier family 2, facilitated glucose transporter member 4 (Mus musculus); assay: Induction of GLUT4 translocation in mouse 3T3-L1 cells membrane assessed as fold increase in Na+/K+ ATPase level by Western blot analysis; type: cell membranes
3T3-L1 [18] = assay: Induction of glucose uptake in mouse 3T3-L1 cells assessed as increase in glucose uptake by measuring fold change at 11 uM incubated for 6 hrs in presence of 0.5 uM wortmannin; type: functional
3T3-L1 [19] = assay: Induction of AKT phosphorylation at ser473 residue in insulin-resistant mouse 3T3-L1 cells assessed as fold change in presence of insulin; type: cell-based; settings: filed as activator
[20] = Effect on ACTbeta mRNA expression in mouse 3T3-L1 cells assessed as fold change at 11 uM incubated for 6 hrs by real time qPCR analysis; type: functional
[21] = molecular target: T2, Solute carrier family 2, facilitated glucose transporter member 1 (Mus musculus) (UniProt P17809); assay: Induction of GLUT1 translocation in mouse 3T3-L1 cells membrane assessed as fold increase in Na+/K+ ATPase level by Western blot analysis; type: cell membranes
T2 sequence (whole entry): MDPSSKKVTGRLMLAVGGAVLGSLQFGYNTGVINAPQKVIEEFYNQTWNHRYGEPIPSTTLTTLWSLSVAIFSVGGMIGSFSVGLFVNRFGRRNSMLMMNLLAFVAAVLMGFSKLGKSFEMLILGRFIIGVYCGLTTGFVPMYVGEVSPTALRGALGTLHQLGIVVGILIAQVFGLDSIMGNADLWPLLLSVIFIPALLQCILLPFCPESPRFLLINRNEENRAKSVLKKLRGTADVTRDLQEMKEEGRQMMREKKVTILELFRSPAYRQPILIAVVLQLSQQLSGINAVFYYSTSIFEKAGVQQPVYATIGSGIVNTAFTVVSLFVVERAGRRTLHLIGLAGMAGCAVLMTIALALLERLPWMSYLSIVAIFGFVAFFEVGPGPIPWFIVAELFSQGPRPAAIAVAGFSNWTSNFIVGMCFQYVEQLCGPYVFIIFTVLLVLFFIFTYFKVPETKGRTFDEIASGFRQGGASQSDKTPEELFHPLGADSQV

3T3-L1 [22] = assay: Induction of glucose uptake in mouse 3T3-L1 cells assessed as increase in glucose uptake at 11.27 uM in presence 2-[3H]-deoxyglucose by microbeta analysis; type: functional, cell-based; settings: time 3-16 hrs, TDE = time-dependent effect
[23] = molecular target: T2, Solute carrier family 2, facilitated glucose transporter member 1 (Mus musculus); assay: Induction of GLUT1 translocation in mouse 3T3-L1 cells Cytosol by Western blot analysis; type: subcellular
3T3-L1 [24] = assay: Effect on GLUT4 mRNA expression in mouse 3T3-L1 cells at 11 uM incubated for 6 hrs by real time qPCR analysis; type: functional, cell-based
3T3-L1 [25] = assay: Induction of glucose uptake in mouse 3T3-L1 cells assessed as increase in glucose uptake incubated for 16 hrs in presence 2-[3H]-deoxyglucose by microbeta analysis; type: functional, cell-based; settings: dose 2.8-11 µM
3T3-L1 [26] = assay: Induction of glucose uptake in insulin-stimulated mouse 3T3-L1 cells assessed as increase in glucose uptake at 100 nM incubated for 16 hrs presence 2-[3H]-deoxyglucose by microbeta analysis; type: functional, cell-based
3T3-L1 [27] = assay: Induction of AKT phosphorylation at ser473 residue in mouse 3T3-L1 cells measured up to 6 hrs by Western blot analysis; type: cell-based; settings: filed as activator
3T3-L1 [28] = assay: Induction of glucose uptake in metformin-stimulated mouse 3T3-L1 cells assessed as increase in glucose uptake at 11 uM incubated for 16 hrs presence 2-[3H]-deoxyglucose by microbeta analysis; type: functional
[29] = Effect on GLUT4 protein level in mouse 3T3-L1 cells assessed as fold change at 11 uM incubated for 16 hrs; type: functional
3T3-L1 [30] = assay: Induction of glucose uptake in mouse 3T3-L1 cells assessed as increase in glucose uptake by measuring fold change at 11 uM incubated for 6 hrs in presence of 0.1 uM wortmannin; type: functional
3T3-L1 [31] = assay: Induction of glucose uptake in insulin-stimulated mouse 3T3-L1 cells assessed as increase in glucose uptake at 11 uM incubated for 16 hrs presence 2-[3H]-deoxyglucose by microbeta analysis; type: functional
3T3-L1 [32] = assay: Induction of glucose uptake in mouse 3T3-L1 cells assessed as increase in glucose uptake by measuring fold change at 11 uM incubated for 6 hrs in presence of 0.25 uM wortmannin; type: functional
3T3-L1 [33] = assay: Induction of glucose uptake in mouse 3T3-L1 cells assessed as increase in glucose uptake at 11 uM incubated for 16 hrs in presence of wortmannin; type: functional, cell-based

Compound: C/C=C(\C)c1c(Cl)c(O)c(C)c2c1Oc1c(Cl)c(O)c(Cl)c(C)c1C(=O)O2
Activity (3T3-L1 [1]): 121%

Compound: C/C=C(\C)c1cc(O)c(C)c2c1Oc1cc(O)cc(C)c1C(=O)O2
Activity (3T3-L1 [2]): 124%

Activity [5]: Active
Activity [7]: Active
fold change (FC) [17]: 1.7
fold change (FC) [21]: 1.6
Activity [23]: Active
Compound: C/C=C(\C)c1c(Cl)c(OC)c(C)c2c1Oc1c(Cl)c(O)c(Cl)c(C)c1C(=O)O2
fold change (FC) [3]: 2.07
Activity (3T3-L1 [4]): inactive
fold change (FC) [6]: 3.8
fold change (FC) (3T3-L1 [8]): 2.7
Activity (3T3-L1 [9]): Non-Toxic
fold change (FC) [10]: 3.7
fold change (FC) (3T3-L1 [11]): 2.4
Activity (3T3-L1 [12]): inactive
Activity (3T3-L1 [13]): Active
Activity (3T3-L1 [14]): 20%
fold change (FC) (3T3-L1 [15]): 19
fold change (FC) (3T3-L1 [16]): 2.4
fold change (FC) (3T3-L1 [18]): 1.2
fold change (FC) (3T3-L1 [19]): 2.1
Activity (3T3-L1 [1]): 141%
fold change (FC) [20]: 1.92
Activity (3T3-L1 [22]): Tde
Activity (3T3-L1 [24]): Active
Activity (3T3-L1 [25]): Dose-Dependent Effect
Activity (3T3-L1 [26]): Active
Activity (3T3-L1 [27]): Active
Activity (3T3-L1 [28]): 252%
fold change (FC) [29]: 1.67
fold change (FC) (3T3-L1 [30]): 1.5
Activity (3T3-L1 [31]): 276%
fold change (FC) (3T3-L1 [32]): 1.4
Activity (3T3-L1 [33]): inactive
